Results published in patent US10000790B2, “Materials and methods for rapid visualization of NAD(P)H” (THE FLORIDA INTERNATIONAL UNIVERSITY BOARD OF TRUSTEES, priority 2015, dated 2018).

Tests used:
[1] = tested on: glucose dehydrogenase (GDH); test: Inhibition of GDH-driven NADH production read out on the paper-based AuNP device; format: biochemical, Pseudomonas sp.
Method: (§1) To test the inhibitory effects of Hg(II), different concentrations of Hg(II) was incubated with 0.1 U GDH for 10 min in the presence of 10 mM of glucose and 0.1 M of phosphate buffer solution (pH 7.4) at 25 ° C., then 6 mM of NAD' was added to initiate the enzymatic reaction for […]. The kinetics of the reaction was monitored for the first 6 minutes in a microplate reader to calculate the enzyme's activity. 10 μL of the enzymatic reaction solution were added to 90 μL of 400 μM Au^3+-CTAB solution, and 25 μL of this solution was applied to the device test zone.
The colorimetric results were visualized after 4 minutes and evaluated for the inhibitory effects of these metals by measuring the decrease in the color intensity produced by the enzyme-substrate reaction. Ag(I) and Pb(II) were also tested as potential inhibitors in a similar fashion. Intensity analysis was performed using the ImageJ software.
Clearly, the GDH inhibition and AuNPs dissolution was increased with increasing Hg(II) concentration, with complete dissolution of AuNPs in the testing zone at a Hg(II) ion concentration of 100 μM (FIG. 6B, Hg(II)).
(§2) The resulting solution was then added into a 400 μM of Au^3+-CTAB solution, and 25 μL of this mixture were immediately applied to the testing zone. In the absence of Hg(II), GDH fully converted NAD^+ into NADH after 4 minutes, completely inhibiting AuNP dissolution and leaving the testing zone dark red (FIG. 17A). […] GDH-mediated production of NADH decreased in parallel with the increase of Hg(II) concentration, yielding a lighter readout as increased dissolution of AuNPs occurred (FIG. 17A). […] The color intensity was measured with the ImageJ software and the normalized intensity with different concentrations of Hg(II) was plotted (FIG. 17B). The kinetics of GDH in homogeneous solution was also monitored with or without Hg(II) ions (FIG. 18). Enzyme activity was calculated based on the kinetics of the enzymatic reaction and defined as 100% in the absence of Hg(II).

[2] = tested on: GDH; conditions: reference 43; cited from earlier work
[3] = molecular target: glucose dehydrogenase (GDH); test: GDH activity in homogeneous solution, absorbance change at 340 nm; format: biochemical, Pseudomonas sp.; conditions: Hg(II) 0-200 μM, activity 100% without Hg(II), read-out: IC50 for inhibition of GDH in homogeneous solution
Method: The absorbance change at 340 nm was monitored to calculate enzyme activity. Hg(II) concentrations being tested ranged from 0-200 μM. The enzyme's activity was defined as 100% in the absence of the Hg(II) ion, and as the Hg(II) concentration increased the enzyme's activity decreased.
as §1, with “10 μL of the enzymatic reaction solution were added to 90 μL of 400 μM Au^3+-CTAB solution, and 25 μL of this solution was applied to the device test zone.” left out
as §2, with “zone.” for “zone. In the absence of Hg(II), GDH fully converted NAD^+ into NADH after 4 minutes, completely inhibiting AuNP dissolution and leaving the testing zone dark red (FIG. 17A).”

Compound | enzyme activity ([1]; 2.5 μM of the ion, small decrease of color intensity) | inhibition of AuNPs dissolution ([1]; 20 μM of the ion) | GDH activity ([1]; 20 μM of the ion, light pink color) | inhibition of GDH ([1]; 100 μM of the ion, completely white readout, complete dissolution of AuNPs) | IC50 ([1]; 0.1 U GDH, 0-200 μM Hg(II), 400 μM Au3+-CTAB, 4-min reaction, ImageJ intensity) | inhibitory effect on GDH (literature) [2] | IC50 [3] | activity of GDH ([1]; 20 μM or higher of the ion, completely white readout) | inhibitory effect on GDH ([1]; 20 to 100 μM of the ion, no dissolution of AuNPs observed)
CC(=O)[O-].CC(=O)[O-].[Hg+2] [Hg(II), mercury(II) acetate] | slightly inhibited | approximately 30% | significantly inhibited | complete inhibition | 20 µM | strong inhibitors | 18 µM | – | –
O=[N+]([O-])[O-].[Ag+] [Ag(I), silver nitrate] | – | – | – | – | – | strong inhibitors | – | completely inhibited | –
lead(II) acetate trihydrate [Pb(II)] | – | – | – | – | – | no inhibitory effect | – | – | no inhibitory effect
